The subject of series [1] is Nalm-6 Leukemia. Briefly: Median lethal dosage (IC50) against tumor cell lines. The format is cell-based. The settings on record: Homo sapiens; Nalm-6 leukemia tumor cells.
For series [2], the system named is normal cells. Description: Median lethal dosage, summary over normal cells. The class given is cell-based. The settings on record: mostly, normal cells of Table 1; read-out: median lethal dosages against normal cells.
For series [3], the system named is HepG2 Liver cancer. Description: Median lethal dosage (IC50) against tumor cell lines. The class given is cell-based. The settings on record: Homo sapiens; HepG2 liver cancer tumor cells.
For series [4], the system named is tumor cells. Briefly: Median lethal dosage, summary over tumor cells. The class given is cell-based. To be noted: vast majority of the tumor cells of Table 1; read-out: median lethal dosages against tumor cells.
Series [5] concerns Sk-Hep1 Liver cancer. Description: Median lethal dosage (IC50) against tumor cell lines. The format is cell-based. The settings on record: Homo sapiens; Sk-Hep1 liver cancer tumor cells.
Series [6] deals with RKO Colorectal cancer. The series is described as above. To be noted: Homo sapiens; RKO colorectal cancer tumor cells. The class given is cell-based.
The test system of series [7] is colorectal cancer cells RKO. Description: Intraperitoneal RKO in nude mice, intraperitoneal administration. The format is in vivo. To be noted: intraperitoneal 10 mg/Kg once daily until day 5. The method, then:
In addition, we also tested for nude mice utilizing intraperitoneal administration, where 2×10^6 colorectal cancer cells, RKO, were first injected intraperitoneally in nude mice, and about 3 days later, we treated the nude mice using intraperitoneal administration (10 mg/Kg).

Series [8] concerns colorectal cancer cells RKO. Briefly: Scratch assay of cultured cells (migration). The class given is cell-based, human. The text has this:
(§1) Ectopic metastasis of tumors is the biggest challenge in tumor treatment.

The test system of series [9] is pancreatic tumor cells Panc1. Description: Scratch assay of cultured cells (migration). The format is cell-based, human.
Text: as §1

Series [10] deals with colorectal cancer cells RKO. Description: Intraperitoneal injection of colorectal cancer cells RKO in nude mice, intravenous administration. The format is in vivo. From the text: In order to further investigate whether ethidium bromide also has a better inhibitory effect on other types of tumors, we administered nude mice 2 weeks after the intraperitoneal injection of 2×10^6 colorectal cancer cells RKO, and then tested the anti-tumor effect of ethidium bromide after 4 weeks of intravenous administration, as described above.

The test system of series [11] is MDA-231 Breast cancer. Briefly: Median lethal dosage (IC50) against tumor cell lines. The class given is cell-based. To be noted: Homo sapiens, MDA-MB-231; MDA-231 breast cancer tumor cells.
Series [12] has as its system 3T3-L1. Briefly: Median lethal dosage (IC50) against normal cell lines. The settings on record: Mus musculus; 3T3-L1 normal cells. The format is cell-based.
Where [13] appears, read: intravenous, start 2 weeks after cell injection, 4 weeks.

Experimental findings from patent publication US20250152577A1, “Pharmaceutical Composition of Ethidium Bromide and Use in Treating Cancer” (RUIJIN HOSPITAL, SHANGHAI JIAOTONG UNIVERSITY SCHOOL OF …, priority 2022, published 2025) are described below.

With `CC[n+]1c(-c2ccccc2)c2cc(N)ccc2c2ccc(N)cc21` [ethidium bromide, Ethidium bromide], the IC50 was 1.17 µM in series [1]; above 50 µM in [2]; 8.12 µM in [3]; below 10 µM in series [4]; 1.26 µM in [5]; 1.43 µM in series [6]. Besides, the IC50 was 5.4 µM in series [11] and 67.9 µM in series [12]. The deaths result in [7] is “excessive deaths in nude mice”. Besides, the “migration of tumor cells” value in series [8] and in series [9] was “significantly inhibit the migration” throughout. In addition, the “liver and spleen weights vs control” value in series [10] (intravenous, 4 weeks) is “no significant difference in liver and spleen weights”. In addition, the “abdominal tumors vs control” value in series [10] (setting [13]) is given as “significantly smaller than those in the control group”. Further, the “mice with tumors completely cleared” value in series [10] (setting [13]) is recorded as “approximately 25%”. Besides, in series [10] (later stage, dosing group), the body weight result is recorded as “slight decrease in body weight”.
